Patent publication US8343978B2, “Fast onset orodispersable tablets” (Adds Pharmaceuticals LLC, priority 2008, dated 2013)
Entries after “also recorded” stand apart in the source; their conditions may differ.

Legend:
[1] = Cloud point (LCST) measurement by spectrophotometry, light transmission at 750 nm; assay type: physicochemical; conditions: 2 wt % hydroxypropylcellulose; for Effect of modifier on the LCST of hydroxypropylcellulose (Klucel EF): 0.2M sodium citrate, 0.2M magnesium sulfate, 0.2M potassium phosphate monobasic, 0.02M calcium sulfate, 1M mannitol, 1M xylitol
Excerpt: The critical solution temperature of a polymer can be measured by spectrophotometry, by differential scanning calorimetry, or by nuclear magnetic resonance spectroscopy. For example, the spectrophotometrical method can be used to measure the cloud point of an LCST polymer. “Cloud point” generally refers to the temperature where the polymer solution in an aqueous medium becomes cloudy, indicating initiation of precipitation or flocculation of the polymer. The spectrophotometical method, as described as follows, can be adopted to screen various combinations of LCST polymers and modifiers to determine whether a modifier is capable of reducing the LCST of a polymer to about 37° C. or lower.
An LCST polymer is dissolved in distilled water and, optionally, separate solutions of LCST modifiers at various concentrations. Each polymer or polymer/modifier test solution is placed in a separate container, such as a bottle or a beaker, and each container is placed in a water bath. The water bath is equipped with a temperature regulator, and the temperature of the bath is set at approximately 60° C. (the temperature of the bath can start at a high temperature or, alternatively, the temperature of the water bath can start low and be increased gradually at a rate of, e.g., 1° C./min). While in the water bath, each test solution is circulated through a 1-cm flowthrough quartz cuvette using a peristaltic pump (Masterflex) at a flow rate of 50 ml/min. The temperature of the test solution is monitored using a thermocouple, the lead of which is inserted into the test solution in the container. Alternatively, the lead of the thermocouple can be inserted into the cuvette through tubing connecting the container and the cuvette. The light transmission (T %) of each solution is measured spectrophotometrically with a UV spectrophotometer at a wavelength of 750 nm. Initially, spectrophotometric measurements are taken at 2-3° C. intervals. Near the cloud point of a particular polymer or polymer/modifier combination, spectrophotometric measurements are taken more frequently (e.g., at 1 ° C. intervals). The cloud point is ascertained as the temperature at which the light transmission is 90% of the transmission at room temperature.

[2] = Tablet disintegration time in deionized water at 37° C., disintegration tester; assay type: physicochemical; conditions: 500 mg tablets, 1.3 cm diameter; 300 ml DI water at 37° C., 200 rpm paddle; n=3
Experimental: To compare the cohesive properties of the modifiers tested in Example 2, tablets containing 95 wt % of each potential LSCT modifier and 5 wt % of cross-linked sodium carboxylmethylcellulose (Croscarmellose sodium) were tested for their average disintegration time in aqueous medium using a disintegration tester (LIJ-2, Vanguard Pharmaceutical Machinery, Inc. USA). The potential LCST modifier and Croscarmellose sodium were dry-blended in a vial and 500 mg of each blend were compressed under 1 metric ton of compression pressure using a 1.3 cm diameter rounding tool. The resulting tablets were placed into 300 ml of deionized (DI) water (at 37° C., agitated using a 200 rpm paddle) and the disintegration times of the tablets (i.e., the time that it took for each tablet to completely dissolve) were measured. Disintegration times were measured for three tablets of each modifier and average disintegration rates and standard deviates were determined. […]
An orally disintegrating placebo tablet comprising hydroxypropylcellulose as the LCST polymer and calcium sulfate as the modifier was manufactured as follows. […] The mean disintegration time of the tablets (n=3) was 35 seconds, with standard deviation of 4 seconds, as measured in de-ionized water at 37° C. using a disintegration tester (LIJ-2, Vanguard Pharmaceutical Machinery, Inc. USA). […]

| Effect of modifier on the LCST of hydroxypropylcellulose (Klucel EF) ([1]; listed as potassium phosphate (monobasic)) | SMILES | Effect of modifier on the LCST of hydroxypropylcellulose (Klucel EF) [1] | Effect of electrolyte modifier on the LCST of hydroxypropylcellulose, compared at equal concentration ([1]; electrolytes at 0.02M) | Disintegration time of tablets of 95 wt % modifier and 5 wt % Croscarmellose sodium [2] |
| --- | --- | --- | --- | --- |
|  | O=S(=O)([O-])[O-].[Ca+2] [calcium sulfate] | significantly reduce the LCST; also recorded: capable of reducing the LCST of hydroxypropylcellulose | most effective reducer; also recorded: strongest effect on reducing the LCST | one |
|  | O=S(=O)([O-])[O-].[Mg+2] [magnesium sulfate] | significantly reduce the LCST; also recorded: capable of reducing the LCST of hydroxypropylcellulose |  |  |
|  | OC[C@@H](O)[C@@H](O)[C@H](O)[C@H](O)CO [mannitol] | significantly reduce the LCST; also recorded: capable of reducing the LCST of hydroxypropylcellulose |  |  |
|  | O=C([O-])CC(O)(CC(=O)[O-])C(=O)[O-].[Na+].[Na+].[Na+] [sodium citrate] | significantly reduce the LCST; also recorded: capable of reducing the LCST of hydroxypropylcellulose |  |  |
| significantly reduce the LCST | O=P([O-])(O)O.[K+] [potassium phosphate monobasic] | capable of reducing the LCST of hydroxypropylcellulose |  | one |
|  | OC[C@@H](O)[C@H](O)[C@@H](O)CO [xylitol] | significantly reduce the LCST; also recorded: capable of reducing the LCST of hydroxypropylcellulose |  |  |
